Patent US10766902B2, “Wee-1 inhibiting pyrazolopyrimidinone compounds” (ALMAC DISCOVERY LIMITED, priority 2016, dated 2020)

target: Wee-1 kinase (Homo sapiens (Human), UniProt P30291); experiment: Measurement of Wee-1 kinase activity (ADP-Glo luminescence); assay type: biochemical; settings: read-out: Wee1 IC50
Experimental: Method 1: Measurement of Wee-1 Kinase Activity
In the measurement of Wee-1 activity, a commercial peptide Poly(Lys Tyr(4:1)) hydrobromide was purchased from Sigma Aldrich and used as the substrate. Activated Wee-1 kinase was purchased from Invitrogen (PV3817) and an ADP-Glo luminescent kit was purchased from Promega.
All reactions took place in […] volumes in reaction buffer containing 40 mM Tris-HCl and 20 mM magnesium chloride, supplemented with 0.1 mg/mL bovine serum albumin and 2 mM DTT. Compounds were serially diluted in buffer and 5 μL of each concentration pipetted into a white 384 well plate (Sigma Aldrich M6186). A 5 μL aliquot of the Wee-1 enzyme was added to each well and the plate centrifuged for 1 min to ensure mixing of the enzyme and inhibitor.
The plate was incubated at room temperature for 30 minutes before the addition of 2.0 μg/mL of substrate and 30 μM ATP in a 5 μL aliquot. The plate was centrifuged for one minute and incubated for 1 h at RT.
15 μL of ADP-Glo stop reagent was added to each well to quench the reaction and deplete unconverted ATP. The plate was incubated for a further 40 min in the dark at RT.
30 μL of ADP-Glo kinase detection reagent was added to each well, converting ADP to ATP, catalysing the generation of luciferin by luciferase. The plate was shaken for 1 min, and incubated in the dark for an additional hour.
Luminescence from each well was detected using the Biotek Synergy4 HD plate reader and the percentage inhibition of kinase activity calculated for each inhibitor tested. Positive (kinase only) and negative (no kinase) controls were added to each plate to ensure specific interaction of kinase and inhibitor. The IC50 concentration for each inhibitor was calculated by plotting the percentage kinase inhibition against concentration of inhibitor and the curve generated by non-linear regression fitting.

Chain of Wee-1 kinase (P30291 whole entry): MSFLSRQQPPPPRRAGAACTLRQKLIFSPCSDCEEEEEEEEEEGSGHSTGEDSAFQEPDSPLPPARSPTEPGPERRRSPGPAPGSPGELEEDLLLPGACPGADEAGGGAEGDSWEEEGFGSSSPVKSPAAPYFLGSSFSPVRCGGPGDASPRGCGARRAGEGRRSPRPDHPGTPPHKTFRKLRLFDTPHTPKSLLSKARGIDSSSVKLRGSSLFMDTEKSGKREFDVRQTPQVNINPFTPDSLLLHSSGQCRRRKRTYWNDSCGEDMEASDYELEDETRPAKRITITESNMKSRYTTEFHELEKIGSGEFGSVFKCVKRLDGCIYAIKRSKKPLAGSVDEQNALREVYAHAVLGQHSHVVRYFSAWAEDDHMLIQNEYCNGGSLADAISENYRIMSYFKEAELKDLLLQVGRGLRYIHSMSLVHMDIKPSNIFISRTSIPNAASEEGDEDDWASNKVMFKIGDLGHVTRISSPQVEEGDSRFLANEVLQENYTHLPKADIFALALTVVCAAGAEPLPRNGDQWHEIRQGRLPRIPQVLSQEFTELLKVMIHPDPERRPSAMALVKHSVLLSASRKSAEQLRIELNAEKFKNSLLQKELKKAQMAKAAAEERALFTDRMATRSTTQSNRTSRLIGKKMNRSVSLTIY

Structure (SMILES) | IC50 [pM]
C=CCn1c(=O)c2cnc(Nc3ccc(N4C[C@@H](C)O[C@@H](C)C4)cc3)nc2n1-c1cccc(N=S(C)(C)=O)n1 [Example 32, 1-(6-{[Dimethyl(oxo)-λ^6-sulfanylidene]amino}pyridin-2-yl)-6-{4-([(2S,6R)-2,6-dimethylmorpholin-4-yl]phenyl)amino}-2-(prop-2-en-1-yl)-1H,2H,3H-pyrazolo[3,4-d]pyrimidin-3-one] | 500
C=CCn1c(=O)c2cnc(Nc3ccc(N4CCC(F)(F)CC4)cc3)nc2n1-c1cccc(N=S(C)(C)=O)n1 [Example 34, 1-(6-{[Dimethyl(oxo)-λ^6-sulfanylidene]amino}pyridin-2-yl)-6-{[4-(4,4-difluoropiperidin-1-yl)phenyl]amino}-2-(prop-2-en-1-yl)-1H,2H,3H-pyrazolo[3,4-d]pyrimidin-3-one] | 4600
C=CCn1c(=O)c2cnc(Nc3cccc(N4CCOCC4)c3)nc2n1-c1cccc(N=S(C)(C)=O)n1 [Example 35, 1-(6-{[Dimethyl(oxo)-λ^6-sulfanylidene]amino}pyridin-2-yl)-6-{[3-(morpholin-4-yl)phenyl]amino}-2-(prop-2-en-1-yl)-1H,2H,3H-pyrazolo[3,4-d]pyrimidin-3-one] | 600
C=CCn1c(=O)c2cnc(Nc3ccc(N4CC5CCC(C4)O5)cc3)nc2n1-c1cccc(N=S(C)(C)=O)n1 [Example 36, 1-(6-{[Dimethyl(oxo)-λ^6-sulfanylidene]amino}pyridin-2-yl)-6-{[4-(8-oxa-3-azabicyclo[3.2.1]octan-3-yl)phenyl]amino}-2-(prop-2-en-1-yl)-1H,2H,3H-pyrazolo[3,4-d]pyrimidin-3-one] | 100
C=CCn1c(=O)c2cnc(Nc3cnn(C)c3)nc2n1-c1cccc(N=S(C)(C)=O)n1 [Example 37, 1-(6-{[Dimethyl(oxo)-λ^6-sulfanylidene]amino}pyridin-2-yl)-6-[(1-methyl-1H-pyrazol-4-yl)amino]-2-(prop-2-en-1-yl)-1H,2H,3H-pyrazolo[3,4-d]pyrimidin-3-one] | 1300

Continued, values first:

IC50 [pM] | Structure (SMILES)
1700 | C=CCn1c(=O)c2cnc(Nc3ccc(OCCNC)cc3)nc2n1-c1cccc(N=S(C)(C)=O)c1 [Example 27, 1-(3-{[Dimethyl(oxo)-λ^6-sulfanylidene]amino}phenyl)-6-({4-[2-(methylamino)ethoxy]phenyl}amino)-2-(prop-2-en-1-yl)-1H,2H,3H-pyrazolo[3,4-d]pyrimidin-3-one]
700 | C=CCn1c(=O)c2cnc(Nc3ccc(N4CCN(C)CC4)c(C)c3)nc2n1-c1cccc(N=S(C)(C)=O)n1 [Example 28, 1-(6-{[Dimethyl(oxo)-λ^6-sulfanylidene]amino}pyridin-2-yl)-6-{[3-methyl-4-(4-methylpiperazin-1-yl)phenyl]amino}-2-(prop-2-en-1-yl)-1H,2H,3H-pyrazolo[3,4-d]pyrimidin-3-one]
900 | C=CCn1c(=O)c2cnc(Nc3ccc(N4CCNCC4)c(CO)c3)nc2n1-c1cccc(N=S(C)(C)=O)c1 [Example 29, 1-(3-{[Dimethyl(oxo)-λ^6-sulfanylidene]amino}phenyl)-6-{[3-(hydroxymethyl)-4-(piperazin-1-yl)phenyl]amino}-2-(prop-2-en-1-yl)-1H,2H,3H-pyrazolo[3,4-d]pyrimidin-3-one]
500 | C=CCn1c(=O)c2cnc(Nc3ccc(N4CCN(C)CC4)c(CO)c3)nc2n1-c1cccc(N=S(C)(C)=O)c1 [Example 30, 1-(3-{[Dimethyl(oxo)-λ^6-sulfanylidene]amino}phenyl)-6-{[3-(hydroxymethyl)-4-(4-methylpiperazin-1-yl)phenyl]amino}-2-(prop-2-en-1-yl)-1H,2H,3H-pyrazolo[3,4-d]pyrimidin-3-one]
1400 | C=CCn1c(=O)c2cnc(Nc3ccc(N4CCOCC4)cc3)nc2n1-c1cccc(N=S(C)(C)=O)c1 [Example 31, 1-(3-{[Dimethyl(oxo)-λ^6-sulfanylidene]amino}phenyl)-6-{[4-(morpholin-4-yl)phenyl]amino}-2-(prop-2-en-1-yl)-1H,2H,3H-pyrazolo[3,4-d]pyrimidin-3-one]
